Data published in publication PMC9221851, “A Fluorescence-Based Competitive Antibody Binding Assay for Kynurenine, a Potential Biomarker of Kidney Transplant Failure” (Diagnostics, 2022).

Assays:
[1] = biological target: T1, anti-kynurenine antibody (monoclonal Mouse IgG1a k chain, clone 3D4-F2); experiment: competitive magnetic bead immunoassay, displacement of fluorescent conjugate […] in PBS; format: binding
T1 construct: biotinylated whole antibody on streptavidin magnetic beads

[2] = biological target: T1, anti-kynurenine antibody (monoclonal Mouse IgG1a k chain, clone 3D4-F2); experiment: magnetic bead immunoassay, fluorescence of unbound conjugate in supernatant; format: binding

Row | IC50 [1] [µM] | Kd [2] [µM] | Compound
1 | 4 | – | Nc1ccccc1C(=O)C[C@H](N)C(=O)O [L-kynurenine]
2 | – | 5.9 | CCN(CC)c1ccc2c(-c3ccccc3C(=O)OCc3cn(CCOCCOCCOCCNC(=O)[C@@H](N)CC(=O)c4ccccc4N)nn3)c3ccc(N(CC)CC)cc3[o+]c2c1 [compound 5, L-Kyn-4EG-RhB]
